# Tested on: HIV-IIIb
# Experiment: Test A: Antiviral Assays in MT4 Cells
# Assay type: cell-based
# Settings: Human immunodeficiency virus 1, IIIB, MT4, 120 h
# Outline: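 MT-4 cells pre-infected with HIV-IIIb (0.004 m.o.i.) at 37 °C, then plated with 3-fold serially diluted compound (10 concentrations, quadruplicate, RPMI 1640/10% FBS). After 5 days at 37 °C, cell viability read by CellTiter-Glo chemiluminescence; mock-infected cells run in parallel.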
row,Compound,EC50 [nM]
1,"Cc1cc2cc(F)c(F)cc2c(-c2ccc3c4c(ccnc24)CCO3)c1[C@H](OC(C)(C)C)C(=O)O [Compound 108, (S)-2-tert-Butoxy-2-((R)-1-(2,3-dihydropyrano[4,3,2-de]quinolin-7-yl)-6,7-difluoro-3-methylnaphthalen-2-yl)acetic acid]",28

# Same assay, conditions: Human immunodeficiency virus 1, IIIB, MT4, 120 h, MT-4 cells infected with HIV-IIIb (0.004 m.o.i.), 5 days of incubation, CellTiter-Glo chemiluminescence readout; read-out: EC50
row,Compound,EC50 [nM]
1,"Cc1cc2ccc(C#CC3(N)CCCCC3)cc2c(-c2ccc(Cl)cc2)c1[C@H](OC(C)(C)C)C(=O)O [Compound 100, (S)-2-(7-((1-Aminocyclohexyl)ethynyl)-1-(4-chlorophenyl)-3-methylnaphthalen-2-yl)-2-tert-butoxyacetic acid]",23
2,"Cc1cc2ccccc2c(-c2ccc(F)c3cccnc23)c1[C@H](OC(C)(C)C)C(=O)O [Compound 10, (2S)-2-tert-Butoxy-2-(1-(5-fluoroquinolin-8-yl)-3-methylnaphthalen-2-yl)acetic acid]",36000
3,"Cc1c([C@@H](OC(C)(C)C)C(=O)O)c(-c2ccc(Cl)cc2)c2ccccc2c1Br [Compound 150A, (R)-2-(4-Bromo-1-(4-chlorophenyl)-3-methylnaphthalen-2-yl)-2-tert-butoxyacetic acid]",29200
4,"Cc1cc2ccccc2c(-c2ccc3c4c2N(C)CCC4CCO3)c1[C@H](OC(C)(C)C)C(=O)O (stereo partly drawn) [Compound 22, (2S)-2-tert-Butoxy-2-(3-methyl-1-((7R)-6-methyl-2,3,3a,4,5,6-hexahydropyrano[4,3,2-de]quinolin-7-yl)naphthalen-2-yl)acetic acid]",540
5,"Cc1cc2ccc(C#CC(C)(C)C)cc2c(-c2ccc(Cl)cc2)c1C(OC(C)(C)C)C(=O)O (centres unmarked) [Compound 72, 2-tert-Butoxy-2-(1-(4-chlorophenyl)-7-(3,3-dimethylbut-1-ynyl)-3-methylnaphthalen-2-yl)acetic acid]",2000
6,"CCC(O)(C#Cc1ccc2cc(C)c(C(OC(C)(C)C)C(=O)O)c(-c3ccc(Cl)cc3)c2c1)CC (centres unmarked) [Compound 82, 2-tert-Butoxy-2-(1-(4-chlorophenyl)-7-(3-ethyl-3-hydroxypent-1-ynyl)-3-methylnaphthalen-2-yl)acetic acid]",58
7,"Cc1cc2cc(Cl)c(F)cc2c(-c2ccc3c4c(ccnc24)CCO3)c1[C@H](OC(C)(C)C)C(=O)O (atropisomer, axis not shown) [Compound 171]",36000
8,"Cc1cc2ccc(-c3ccc(Cl)cc3)cc2c(-c2ccc(Cl)cc2)c1C(OC(C)(C)C)C(=O)O (centres unmarked) [Compound 70, 2-(1,7-Bis(4-chlorophenyl)-3-methylnaphthalen-2-yl)-2-tert-butoxyacetic acid]",8800
9,"Cc1cc2c(-c3cncnc3)cccc2c(-c2ccc(Cl)cc2)c1C(OC(C)(C)C)C(=O)O (centres unmarked) [Compound 41, 2-tert-Butoxy-2-(1-(4-chlorophenyl)-3-methyl-5-(pyrimidin-5-yl)naphthalen-2-yl)acetic acid]",400
10,"Cc1cc2ccc(C#CC3(N)CCCCC3)cc2c(-c2ccc(Cl)cc2)c1C(OC(C)(C)C)C(=O)O (centres unmarked) [Compound 84, 2-(7-((1-Aminocyclohexyl)ethynyl)-1-(4-chlorophenyl)-3-methylnaphthalen-2-yl)-2-tert-butoxyacetic acid]",14
11,"Cc1cc2ccc(F)cc2c(-c2ccc3c4c(ccnc24)CCO3)c1[C@H](OC(C)(C)C)C(=O)O (atropisomer, axis not shown) [Compound 179]",18700
12,"Cc1cc2c(F)cccc2c(-c2ccc3c4c(ccnc24)CCO3)c1C(OC(C)(C)C)C(=O)O (centres unmarked) [Compound 44, 2-tert-Butoxy-2-(1-(2,3-dihydropyrano[4,3,2-de]quinolin-7-yl)-5-fluoro-3-methylnaphthalen-2-yl)acetic acid]",120
13,"COc1ccc(Cc2c(OC)ccc3c(-c4ccc(Cl)cc4)c(C(OC(C)(C)C)C(=O)O)c(C)cc23)cc1 (centres unmarked) [Compound 49, 2-tert-Butoxy-2-(1-(4-chlorophenyl)-6-methoxy-5-(4-methoxybenzyl)-3-methylnaphthalen-2-yl)acetic acid]",650
14,"CCc1ccc2cc(C)c(C(OC(C)(C)C)C(=O)O)c(-c3ccc(Cl)cc3)c2c1 (centres unmarked) [Compound 93, 2-tert-Butoxy-2-(1-(4-chlorophenyl)-7-ethyl-3-methylnaphthalen-2-yl)acetic acid]",86
15,"CC(C)(C)O[C@H](C(=O)O)c1c(CF)cc2ccccc2c1-c1ccc2c3c(ccnc13)CCO2 [Compound 31, (S)-2-tert-Butoxy-2-((R)-1-(2,3-dihydropyrano[4,3,2-de]quinolin-7-yl)-3-(fluoromethyl)naphthalen-2-yl)acetic acid]",110
16,"Cc1cc2ccc(CC(C)C)cc2c(-c2ccc(Cl)cc2)c1C(OC(C)(C)C)C(=O)O (centres unmarked) [Compound 94, 2-tert-Butoxy-2-(1-(4-chlorophenyl)-7-isobutyl-3-methylnaphthalen-2-yl)acetic acid]",12000
17,"Cc1cc2ccc(C#CC3CC3)cc2c(-c2ccc(Cl)cc2)c1C(OC(C)(C)C)C(=O)O (centres unmarked) [Compound 75, 2-tert-Butoxy-2-(1-(4-chlorophenyl)-7-(cyclopropylethynyl)-3-methylnaphthalen-2-yl)acetic acid]",980
18,"CC(C)(C)O[C@H](C(=O)O)c1c(COc2cncnc2)cc2ccccc2c1-c1ccc(Cl)cc1 [Compound 26, (S)-2-tert-Butoxy-2-(1-(4-chlorophenyl)-3-((pyrimidin-5-yloxy)methyl)naphthalen-2-yl)acetic acid]",840
19,"Cc1cc2cc(-c3ncccn3)ccc2c(-c2ccc(Cl)cc2)c1[C@H](OC(C)(C)C)C(=O)O [Compound 59, (S)-2-tert-butoxy-2-(1-(4-chlorophenyl)-3-methyl-6-(pyrimidin-2-yl)naphthalen-2-yl)acetic acid]",160
20,"Cc1cc2ccccc2c(C2=CCC3(CC2)CC3)c1[C@H](OC(C)(C)C)C(=O)O [Compound 15, (S)-2-tert-Butoxy-2-(3-methyl-1-(spiro[2.5]oct-5-en-6-yl)naphthalen-2-yl)acetic acid]",15
21,"Cc1cc2ccc(C#CC(C)(C)N(C)C)cc2c(-c2ccc(Cl)cc2)c1C(OC(C)(C)C)C(=O)O (centres unmarked) [Compound 95, 2-tert-Butoxy-2-(1-(4-chlorophenyl)-7-(3-(dimethylamino)-3-methylbut-1-ynyl)-3-methylnaphthalen-2-yl)acetic acid]",380
22,"Cc1cc2cc(C(F)F)c(F)cc2c(-c2ccc3c4c(ccnc24)CCO3)c1[C@H](OC(C)(C)C)C(=O)O (atropisomer, axis not shown) [Compound 164]",25000
23,"CC(C)(C)O[C@H](C(=O)O)c1c(C(F)F)cc2ccccc2c1-c1ccc2c3c(ccnc13)CCO2 [Compound 32, (S)-2-tert-Butoxy-2-((R)-3-(difluoromethyl)-1-(2,3-dihydropyrano[4,3,2-de]quinolin-7-yl)naphthalen-2-yl)acetic acid]",86
24,"Cc1cc2ccccc2c(C2=CCCCC2)c1[C@H](OC(C)(C)C)C(=O)O [Compound 8, (S)-2-tert-Butoxy-2-(1-cyclohexenyl-3-methylnaphthalen-2-yl)acetic acid]",25
25,"Cc1cc2ccccc2c(C2=CC(C)(C)CCC2=O)c1[C@H](OC(C)(C)C)C(=O)O [Compound 11, (S)-2-tert-Butoxy-2-(1-(3,3-dimethyl-6-oxocyclohex-1-enyl)-3-methylnaphthalen-2-yl)acetic acid]",8900
26,"Cc1c(C(OC(C)(C)C)C(=O)O)c(-c2ccc(Cl)cc2)c2ccccc2c1-c1cncnc1 (centres unmarked) [Compound 139, 2-tert-Butoxy-2-(1-(4-chlorophenyl)-3-methyl-4-(pyrimidin-5-yl)naphthalen-2-yl)acetic acid]",10

# Same assay, conditions: MT-4 cells infected with HIV-IIIb (0.004 m.o.i.), 5 days of incubation, CellTiter-Glo chemiluminescence readout; read-out: EC50
row,Compound,EC50 [nM]
1,"Cc1cc2ccccc2c(-c2cccc3cccnc23)c1[C@H](OC(C)(C)C)C(=O)O [Compound 4K, (S)-2-tert-butoxy-2-((R)-3-methyl-1-(quinolin-8-yl)naphthalen-2-yl)acetic acid]",301
2,"Cc1cc2c(-c3cncnc3)cc(F)cc2c(-c2ccc3c4c(ccnc24)CCO3)c1[C@H](OC(C)(C)C)C(=O)O [Compound 114, (S)-2-tert-butoxy-2-((R)-1-(2,3-dihydropyrano[4,3,2-de]quinolin-7-yl)-7-fluoro-3-methyl-5-(pyrimidin-5-yl)naphthalen-2-yl)acetic acid]",1900
3,"Cc1cc2cc(F)c(F)cc2c(-c2ccc3c4c(ccnc24)CCO3)c1[C@@H](OC(C)(C)C)C(=O)O (atropisomer, axis not shown) [Compound 173]",3200
4,"Cc1cc2ccc(F)cc2c(-c2ccc3c4c(ccnc24)CCO3)c1[C@H](OC(C)(C)C)C(=O)O (racemic) [Compound 123, (±)-(2S)-2-tert-Butoxy-2-((R)-1-(2,3-dihydropyrano[4,3,2-de]quinolin-7-yl)-7-fluoro-3-methylnaphthalen-2-yl)acetic acid]",24
5,"Cc1cc2cc(C#N)c(F)cc2c(-c2ccc3c4c(ccnc24)CCO3)c1[C@H](OC(C)(C)C)C(=O)O [Compound 106A, (S)-2-tert-Butoxy-2-((R)-6-cyano-1-(2,3-dihydropyrano[4,3,2-de]quinolin-7-yl)-7-fluoro-3-methylnaphthalen-2-yl)acetic acid]",86
6,"Cc1cc2c(F)c(Cl)ccc2c(-c2ccc3c4c(ccnc24)CCO3)c1[C@H](OC(C)(C)C)C(=O)O (atropisomer, axis not shown) [Compound 152]",5800
7,"Cc1cc2ccc(Cl)cc2c(-c2ccc3c4c(ccnc24)CCO3)c1C(OC(C)(C)C)C(=O)O (racemic) [Compound 124, (±)-(S)-2-tert-butoxy-2-((R)-7-chloro-1-(2,3-dihydropyrano[4,3,2-de]quinolin-7-yl)-3-methylnaphthalen-2-yl)acetic acid]",150
8,"CCc1cc2cc(C)c([C@H](OC(C)(C)C)C(=O)O)c(-c3ccc4c5c(ccnc35)CCO4)c2cc1F [Compound 104, (S)-2-tert-Butoxy-2-((R)-1-(2,3-dihydropyrano[4,3,2-de]quinolin-7-yl)-6-ethyl-7-fluoro-3-methylnaphthalen-2-yl)acetic acid]",36
